Data on two molecules can be found in US6756354B2, “Therapeutic compositions containing oligo (ethylene glycol)-terminated 1,2-dithiolanes and their conjugates” (priority 2001, dated 2004).

For data set [1] the following is noted: mouse.
For data set [2] the following is noted: oral; presystemic glucuronide conjugation; cited from earlier work.

Counter-ions that a name gives are not always drawn.

Consider “OEG-terminated 1,2-dithiolane-conjugated insulin: insulin conjugated at lysine-29 of the beta-chain with NHS-ester of carboxyl-OEG-terminated thioctamide (x is 8)”, for which the “oral bioavailability (concluded from glucose reduction)” value in data set [1] (in vivo, po) is given as “orally bioavailable”. Moreover, in data set [1] (oral gavage, 10 mg/mL solution, 10 mL/kg dose), the serum glucose result is “reduction”. With `O=C(c1ccc(OCCN2CCCCC2)cc1)c1c(-c2ccc(O)cc2)sc2cc(O)ccc12` [Raloxifene, [6-hydroxy-2-(4-hydroixyphenyl)benzo[b]thien-3-yl]-4-[2-(1-piperidinyl)ethoxy]phenyl]methanone hydrochloride], the absolute bioavailability entry in data set [2] is given as “about 2%”.
